Compound in test [1]: CS(=O)(=O)CCNCc1ccc(-c2ccc3ncnc(Nc4ccc(OCc5cccc(F)c5)c(Cl)c4)c3c2)o1 [LAPATINIB]
Put plainly: surviving fraction relative to DMSO-only wells; higher = less growth inhibition. The following applies: exposure time: 5 days. The essentials: (§1)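 Inhibitors were tested at 0.5, 1, 5, 10, 50, 100, 500 and 1000 nM, applied continuously for five days beginning 24 hours after log-phase tumour cells were seeded at 250–500 per well in 384-well plates. CellTiter-Glo luminescence served as the viability measure, expressed as surviving fraction against the median of DMSO-only wells. Each line, screened three times, was kept only with replicate Pearson r >0.7 and median Z' >0.3.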

Compound in test [2]: Oc1ccc(/C=C/c2cc(O)cc(O)c2)cc1 [RESVERATROL]
The test is described as above. The following applies: exposure time: 5 days. In short, it runs like this:
as §1

± gives the standard deviation of the averaged measurements.

Regarding LNCAP PROSTATE, the surviving fraction in test [1] (0.5 nM) stood at 0.894 ± 0.055; in test [1] (1 nM), 0.981 ± 0.02; in test [1] (5 nM), 0.917 ± 0.086; in test [1] (10 nM), 0.981 ± 0.033; in test [1] (50 nM) it was 0.937 ± 0.061; in test [1] (100 nM), 0.891 ± 0.038. The surviving fraction in test [1] (500 nM) was found to be 0.995 ± 0.035; in test [1] (1000 nM), 0.951 ± 0.21; in test [2] (0.5 nM), 0.912 ± 0.051; in test [2] (1 nM), 0.987 ± 0.098; in test [2] (5 nM) it was 0.897 ± 0.11; in test [2] (10 nM), 0.775 ± 0.12. Besides, the surviving fraction in test [2] (50 nM) turned out to be 1.04 ± 0.16; in test [2] (100 nM), 0.919 ± 0.11; in test [2] (500 nM) it was 0.914 ± 0.08; in test [2] (1000 nM), 0.956 ± 0.18.

With MCF7 BREAST, the surviving fraction in test [1] (0.5 nM) is 0.988 ± 0.053; in test [1] (1 nM), 0.921 ± 0.032; in test [1] (5 nM), 0.931 ± 0.049; in test [1] (10 nM), 0.962 ± 0.043; in test [1] (50 nM) it was 0.961 ± 0.057; in test [1] (100 nM), 0.946 ± 0.096. The surviving fraction came to 0.946 ± 0.061 in test [1] (500 nM); 0.916 ± 0.023 in test [1] (1000 nM); 0.91 ± 0.027 in test [2] (0.5 nM); 1.01 ± 0.074 in test [2] (1 nM); 0.927 ± 0.068 in test [2] (5 nM); 0.947 ± 0.03 in test [2] (10 nM). Besides, the surviving fraction in test [2] (50 nM) was found to be 0.951 ± 0.063; in test [2] (100 nM), 0.99 ± 0.016; in test [2] (500 nM), 1 ± 0.077; in test [2] (1000 nM), 1.04 ± 0.031.

Take MDAMB134 BREAST: the surviving fraction in test [1] (0.5 nM) was 0.967 ± 0.017; in test [1] (1 nM), 0.963 ± 0.1; in test [1] (5 nM) it was 0.975 ± 0.028; in test [1] (10 nM), 1 ± 0.14; in test [1] (50 nM), 1.04 ± 0.19; in test [1] (100 nM), 0.966 ± 0.083. Besides, the surviving fraction in test [1] (500 nM) was 0.956 ± 0.071; in test [1] (1000 nM), 0.806 ± 0.062; in test [2] (0.5 nM) it was 0.894 ± 0.15; in test [2] (1 nM), 1.02 ± 0.045; in test [2] (5 nM) it was 0.864 ± 0.11; in test [2] (10 nM), 0.811 ± 0.016. Besides, the surviving fraction was found to be 1.06 ± 0.14 in test [2] (50 nM), 1.04 ± 0.15 in test [2] (100 nM), 1.057 ± 0.0028 in test [2] (500 nM) and 1.08 ± 0.048 in test [2] (1000 nM).

Take MDAMB157 BREAST: the surviving fraction in test [1] (0.5 nM) came out at 1 ± 0.11; in test [1] (1 nM), 0.991 ± 0.11; in test [1] (5 nM), 1.09 ± 0.034; in test [1] (10 nM), 1.04 ± 0.095; in test [1] (50 nM), 1.01 ± 0.064; in test [1] (100 nM), 1.008 ± 0.0098. In addition, the surviving fraction in test [1] (500 nM) amounted to 0.951 ± 0.082; in test [1] (1000 nM) it was 0.931 ± 0.041; in test [2] (0.5 nM) it was 1.01 ± 0.061; in test [2] (1 nM) it was 1.06 ± 0.048; in test [2] (5 nM) it was 0.972 ± 0.057; in test [2] (10 nM) it was 1.1 ± 0.038. For the same test system, the surviving fraction was found to be 0.992 ± 0.025 in test [2] (50 nM), 1.07 ± 0.03 in test [2] (100 nM), 0.972 ± 0.095 in test [2] (500 nM) and 1 ± 0.1 in test [2] (1000 nM).

Turning to MDAMB231 BREAST, the surviving fraction in test [1] (0.5 nM) was 0.9471 ± 0.0072; in test [1] (1 nM), 1.01 ± 0.032; in test [1] (5 nM), 0.986 ± 0.029; in test [1] (10 nM), 0.9838 ± 0.0088; in test [1] (50 nM), 0.96 ± 0.019; in test [1] (100 nM), 1.02 ± 0.012. Further, the surviving fraction in test [1] (500 nM) was found to be 1.013 ± 0.0062; in test [1] (1000 nM) it was 1.01 ± 0.021; in test [2] (0.5 nM), 0.97 ± 0.01; in test [2] (1 nM), 0.996 ± 0.013; in test [2] (5 nM), 0.9638 ± 0.0043; in test [2] (10 nM) it was 0.993 ± 0.016. For the same test system, the surviving fraction in test [2] (50 nM) is 0.9694 ± 0.0024; in test [2] (100 nM) it was 0.998 ± 0.012; in test [2] (500 nM) it was 0.993 ± 0.012; in test [2] (1000 nM) it was 1.03 ± 0.053.

Consider MDAMB361 BREAST, for which the surviving fraction came to 0.891 ± 0.12 in test [1] (0.5 nM); 0.823 ± 0.11 in test [1] (1 nM); 0.902 ± 0.096 in test [1] (5 nM); 0.874 ± 0.065 in test [1] (10 nM); 0.864 ± 0.028 in test [1] (50 nM); 0.711 ± 0.041 in test [1] (100 nM). Also, the surviving fraction in test [1] (500 nM) is 0.724 ± 0.096; in test [1] (1000 nM) it was 0.672 ± 0.069; in test [2] (0.5 nM) it was 0.839 ± 0.071; in test [2] (1 nM), 0.871 ± 0.11; in test [2] (5 nM), 0.894 ± 0.089; in test [2] (10 nM), 0.898 ± 0.079. Besides, the surviving fraction in test [2] (50 nM) was found to be 0.948 ± 0.012; in test [2] (100 nM) it was 0.884 ± 0.021; in test [2] (500 nM), 0.949 ± 0.082; in test [2] (1000 nM), 0.952 ± 0.17.

The values above are taken from the supplement of paper PMC6045584.
